Experimental findings from patent US8354522B2, “Immunostimulatory oligoribonucleotides” (Coley Pharmaceutical GmbH, priority 2005, dated 2013) are described below.

Entries after “also recorded” stand apart in the source; their conditions may differ.

One data set has as its system sv129 mice. The experiment in a line: Cytokine production in sv129 mice in vivo (whole blood ELISA, 3 hours). More on the design: species or system mouse. The conditions noted are these: ORN formulated with DOTAP, bled after 3 hours. The protocol: (§1) Cells used were mouse macrophage cell line Raw264.7 cells (FIG. 12a), J774 cells (FIG. 12b), purified mouse CD11c+ cells (sv129 mice) (FIGS. 12c-12h) and mouse cells in vivo. Cytokine concentration was evaluated by ELISA.
(§2) Raw264.7 cells (FIG. 12a), J774 cells (FIG. 12b) and purified CD11c+ cells (Milteny, magnetic bead labeling) were isolated from sv129 mice splenocytes (FIGS. 12c-12e) and were stimulated with indicated concentrations of ORN complexed to DOTAP (50 μg/ml and diluted with ORN), R-848 or DOTAP alone (50 μg/ml). After 16 hours (FIGS. 12a and 12b) or 20 hours (FIGS. 12c-12e) supernatants were harvested and used for TNF-alpha (FIGS. 12a and 12b), IL-12p40 (FIG. 12c), IFN-alpha (FIG. 12d) and IP-10 (FIG. 12e) ELISA. Data represent one individual from at least three experiments (FIGS. 12a and 12b) and mean of 3 mice (FIGS. 12c-12e). To measure the ability of AU-rich ORN to stimulate mouse cells in vivo, sv129 mice (n=5/group) were injected with the indicated amounts of ORN formulated with DOTAP (60, 20 or 6 μg/ml), and bled after 3 hours. IL-12p40 (FIG. 12f), IFN-alpha (FIG. 12g) and IP-10 (FIG. 12h) production was measured within whole blood by ELISA.

The subject of a further data set is Bovine PBMC. The experiment in a line: Cytokine production by bovine PBMC (48 hours, ELISA). The class given is cell-based. The conditions noted are these: 10 μg/ml (H.D.) and 2.5 μg/ml (L.D.). As for the experimental part: FIG. 11 is a set of bar graphs showing differences between TLR8 ORN (SEQ ID NO:13) and TLR7/8 ORN (SEQ ID NO:21). SEQ ID NO:5 ORN was used as a control. Bovine PBMC were incubated with either 10 μg/ml ORN (HD) or 2.5 μg/ml ORN (LD) for 48 hours. Supernatants were collected and analyzed by ELISA. FIGS. 11a-c show the level of IL-12, IFN-γ, and TNF-alpha, respectively.
The assay was repeated with a TLR8 ORN (SEQ ID NO:13), a TLR 7/8 ORN (SEQ ID NO:21) and a control ORN (SEQ ID NO:5) (Table 3) at both a high dose (H.D., 10 μg/ml) and a low dose (L.D., 2.5 μg/ml).

For data set [1], the system named is Raw264.7 cells, J774 cells, purified mouse CD11c+ cells. The experiment in a line: Cytokine production by mouse cells in vitro (ELISA). The class given is cell-based. The conditions noted are these: ORN complexed to DOTAP, 16 or 20 hours. The protocol:
as §1, §2

In a further data set the test system is isolated pDC. The experiment in a line: IFN-alpha production upon isolated pDC stimulation. It is filed as cell-based, human. The conditions noted are these: 0.5 μM ORN complexed to 10 μg/ml DOTAP, 16 h. As for the experimental part:
FIG. 2 is a set of bar graphs depicting ORN induced cytokine production upon isolated pDC (FIG. 2a), monocytes (FIG. 2b) and mDC (FIG. 2c) stimulation. Cells were stimulated with 0.5 μM ORN complexed to 10 μg/ml DOTAP, 0.5 μM CpG ODN or DOTAP or media alone and IFN-alpha (FIG. 2a), TNF-alpha […] and IL-12p40 (FIG. 2c) were measured.
A similar assay testing different ORN sequences was performed using isolated pDC, monocytes and mDC stimulation. Cells were stimulated with 0.5 μM ORN complexed to 10 μg/ml DOTAP, 0.5 μM CpG ODN or DOTAP or media alone. After 16 h the supernatants were harvested and IFN-alpha, TNF-alpha and IL-12p40 levels were measured by ELISA.

For the substance “U*U*A*U*U*A*U*U*A*U*U*A*U*U*A*U*U*A*U*U (UUAUUAUUAUUAUUAUUAUU; chemistry not fully specified) [SEQ ID NO: 13]”, in the data set with sv129 mice, the “response of mouse cells in vivo (IL-12p40, IFN-alpha, IP-10 in whole blood)” value is reported as “do not Respond”. Further, in the data set with Bovine PBMC, the IFN-γ production result is on record as “stimulated production of IFN-γ”. Moreover, the “response of mouse macrophages/cells in vitro (TNF-alpha, IL-12p40, IFN-alpha, IP-10)” value in data set [1] is “do not Respond”. Also, in the data set with isolated pDC, the “IFN-alpha production upon pDC stimulation (in words)” value was “strongly reduced IFN-alpha production; also recorded: no IFN-alpha cytokine production”.
With “U*U*G*U*U*G*U*U*G*U*U*G*U*U*G*U*U*G*U*U (UUGUUGUUGUUGUUGUUGUU; listed as RNA, chemistry not fully specified) [SEQ ID NO: 21]”, in the data set on Bovine PBMC, the IFN-γ production entry is reported as “stimulated production of IFN-γ”; the IL-12 production entry was “significant production of IL-12 and TNF-alpha”; the TNF-alpha production result was “significant production of IL-12 and TNF-alpha”.
